In patent US20050277586A1, “Peptide chemically modified with polyethylene glycol” (priority 2002, published 2005):

Columns and labels:
plasmid (pUC119) = test: Binding ability to plasmid (agarose gel electrophoresis); details: charge ratio (±ratio) of 3
Description: The plasmid prepared by the procedure described in Example 7 (pUC119; final concentration, 20 μg/mL) and the peptides prepared by the procedure described in Examples 1 to 3 were mixed in 20 mM Tris HCl buffer (pH=7.2) containing 150 mM NaCl at a charge ratio (±ratio) of 0 to 3, and the mixture was allowed to stand at 37° C. for 30 minutes. Electrophoresis was then conducted on 1% agarose gel to thereby determine the binding of the plasmid and the peptide.
(§1) The ±ratio (charge ratio) indicated in FIG. 11 is the ratio of the number (+) of the positively-charged groups in the peptide to the number (−) of negatively-charged groups in the plasmid. As evident in FIG. 11, the amount of plasmid that became bound to the peptide increased with the increase in the charge ratio (±ratio), and the plasmid was fully bound to the peptide at a charge ratio (±ratio) of 3. The peptides of SEQ ID NO: 2 to SEQ ID NO: 24 were also found to bind at a charge ratio (±ratio) of 3.

21mer oligonucleotide = test: Binding ability to oligonucleotide (gel electrophoresis); details: charge ratio (±ratio) of 10
Description: The 21mer oligonucleotide prepared by the procedure described in Example 6 (final concentration, 6.7 μM) and the peptide prepared by the procedure described in Examples 1 to 3 were mixed in 20 mM Tris-HCl buffer (pH=7.2) containing 150 mM NaCl at a charge ratio (±ratio) of 0 to 10, and the mixture was allowed to stand at 37° C. for 30 minutes. Next, 7.5 μL of this solution was mixed with an equal amount of Tris-borate buffer (pH=8.2) containing 80% formamide, and electrophoresis was conducted on 25% polyacrylamide gel containing 7M urea. After the electrophoresis, the gel was stained with 5% aqueous solution of Stains all (manufactured by Funakoshi) containing 50% formamide and washed with water to thereby determine the binding of the oligonucleotide and the peptide.
as §1, with “10” for “11”, “nucleic acid.” for “plasmid.”, “10,” for “11,”, “oligonucleotide” for “plasmid”, “10.” for “3.”

[1] = Affinity for phosphatidyl serine by surface plasmon resonance (Biacore 2000); type: binding; details: in the presence of 0.1 mg/mL BSA
Description: The specific affinity of the peptide for phosphatidyl serine was evaluated by means of surface plasmon resonance (SPR) using Biacore 2000 (manufactured by Biacore). To be more specific, phosphatidyl choline was immobilized on flow cell 1, and 50% of phosphatidyl serine and 50% of phosphatidyl choline were immobilized on flow cell 2 of HPA chip (manufactured by Biacore), and ability of the peptide to bind to the phospholipid was evaluated in the presence of 0.1 mg/mL BSA to thereby evaluate the affinity.

T24 cell = test: Luciferase-expressing plasmid introduction into T24 cell; type: cell-based, human
Text: A cell line established from monkey kidney (Vero cell) and a human bladder cancer cell (T24 cell) purchased from American Type Culture Collection (ATCC) and human lung cancer cell (A549 cell) purchased from Dainippon Pharmaceutical were inoculated on a 24 well culture plate (manufactured by NALGEN NUNC) at 1×10^5 cells/well. Vero cell and A549 cell were cultivated in DMEM (manufactured by Life Technologies Oriental) supplemented with 10% fetal bovine serum (hereinafter referred to as FBS, manufactured by NICHIREI), and T24 cell was cultivated in McCoy's 5a (manufactured by Life Technologies Oriental) supplemented with 10% FBS in 5% CO2 atmosphere at 37° C. for 24 hours. […] The luciferase activity expressed in the cell was then measured by the method instructed in luciferase assay system (manufactured by Promega). […]
20 μL of this cell lysate and 100 μL of the Luciferase Assay Reagent II attached to the kit was added to a fluorescence-measuring plate (Microlite™ 1 plate, manufactured by Dynatech), and after mixing, fluorescence was measured for 1 second by using a multilabel counter (ARVO™ SY1420 MULTILABEL COUNTER, manufactured by Wallac Beltold. […]

## TRYLRIHPRSWVHQIALRLRYLRIHPRSWVHQIALRS [SEQ ID NO: 1]
Plasmid (pUC119)
  Binding of plasmid to the peptide: fully bound
21mer oligonucleotide
  Binding of oligonucleotide to the peptide: fully bound
[1]
  Binding to flow cell 2 (50% phosphatidyl serine, 50% phosphatidyl choline) and flow cell 1 (phosphatidyl choline): stronger
T24 cell
  Luciferase activity: 7.8 × 10^3 cps/mg protein
